Measurements taken from ChEMBL document CHEMBL1147828, “Discovery of indole-containing tetracycles as a new scaffold for androgen receptor ligands” (Bioorg Med Chem Lett, 2006).
The source made the active and inactive calls. The rule behind the calls is not given here.

target: T1, Androgen receptor (Rattus norvegicus, UniProt P15207); experiment: not given; settings: not given
T1 sequence (P15207 whole entry): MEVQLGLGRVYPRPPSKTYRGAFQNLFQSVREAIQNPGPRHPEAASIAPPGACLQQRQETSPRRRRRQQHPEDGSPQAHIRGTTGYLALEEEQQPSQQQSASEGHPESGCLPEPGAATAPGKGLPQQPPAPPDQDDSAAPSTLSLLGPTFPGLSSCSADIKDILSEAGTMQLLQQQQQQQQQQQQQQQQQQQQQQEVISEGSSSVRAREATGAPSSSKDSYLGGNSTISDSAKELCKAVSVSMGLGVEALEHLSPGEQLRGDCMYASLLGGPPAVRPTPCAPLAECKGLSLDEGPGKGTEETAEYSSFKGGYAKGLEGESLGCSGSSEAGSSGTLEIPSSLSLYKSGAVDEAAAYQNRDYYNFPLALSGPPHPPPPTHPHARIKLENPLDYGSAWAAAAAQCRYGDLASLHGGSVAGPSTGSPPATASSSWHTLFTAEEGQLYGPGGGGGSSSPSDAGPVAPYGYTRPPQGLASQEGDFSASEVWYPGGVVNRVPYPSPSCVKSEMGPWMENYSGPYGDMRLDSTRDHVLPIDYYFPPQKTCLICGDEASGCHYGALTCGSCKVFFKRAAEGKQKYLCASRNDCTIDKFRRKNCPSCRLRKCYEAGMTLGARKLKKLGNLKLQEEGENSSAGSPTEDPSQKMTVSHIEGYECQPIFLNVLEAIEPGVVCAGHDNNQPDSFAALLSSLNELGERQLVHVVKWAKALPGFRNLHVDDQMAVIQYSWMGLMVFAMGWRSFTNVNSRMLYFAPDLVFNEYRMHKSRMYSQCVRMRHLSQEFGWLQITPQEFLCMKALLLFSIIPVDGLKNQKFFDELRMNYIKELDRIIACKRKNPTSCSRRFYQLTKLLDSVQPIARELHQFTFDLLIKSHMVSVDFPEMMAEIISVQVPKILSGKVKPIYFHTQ

| IC50 [nM] | SMILES |
| --- | --- |
| 2800 | Cn1c2c(c3cc(O)ccc31)CSc1cc(Br)ccc1-2 |
| 2300 | CCn1c2c(c3cc(O)ccc31)CSc1ccccc1-2 |
| 1000 | CC(=O)n1c2c(c3cc(O)ccc31)CSc1ccccc1-2 |
| 1500 | Cn1c2c(c3cc(Cl)ccc31)CSc1ccccc1-2 |
| 2800 | Cn1c2c(c3cc(F)ccc31)CSc1cc(C(F)(F)F)ccc1-2 |
| 130 | Cn1c2c(c3ccc(O)cc31)CSc1ccccc1-2 |
| 3700 | Cn1c2c(c3cc(F)ccc31)CSc1ccccc1-2 |
| 3000 | COc1ccc2c(c1)SCc1c-2n(C)c2ccc(O)cc12 |
| 3400 | Cn1c2c(c3ccc(O)cc31)C(C)(C)Sc1cc(O)ccc1-2 |
| 110 | Cn1c2c(c3cc(O)ccc31)CSc1ccccc1-2 |
| 5000 | Cn1c2c(c3ccc(O)cc31)CCSc1ccccc1-2 |
| 3800 | Cn1c2c(c3cccc(O)c31)CSc1cc(F)ccc1-2 |
| 2100 | Cn1c2c(c3cc(O)ccc31)CSc1cc(O)ccc1-2 |
| 110 | Cn1c2c(c3cc(O)ccc31)CSc1ccc(F)cc1-2 |
| 4500 | Oc1ccc2[nH]c3c(c2c1)CSc1ccccc1-3 |
| 880 | CC(=O)Oc1ccc2c(c1)c1c(n2C)-c2ccccc2SC1 |
| 630 | Cn1c2c(c3cc(O)ccc31)CSc1cc(F)ccc1-2 |

| SMILES | IC50 [nM] |
| --- | --- |
| Cn1ccc2c1CCc1c-2n(C)c2ccc(O)cc12 | 370 |
| Cn1c2c(c3cc(O)ccc31)CCc1ncccc1-2 | 29 |
| Cn1c2c(c3cc(O)ccc31)CCc1sccc1-2 | 580 |
| Cn1c2c(c3cc(O)ccc31)CSc1ncccc1-2 | 52 |
| Cn1c2c(c3cc(O)ccc31)CCc1cnccc1-2 | 930 |
| Cn1c2c(c3ccc(O)cc31)CCCc1ccccc1-2 | 920 |
| Cn1c2c(c3ccc(O)cc31)CCc1ccccc1-2 | 30 |

target: T2, Androgen receptor (Rattus norvegicus) (UniProt P15207); experiment: Inhibition of rat AR-mediated reporter gene expression in COS7 cells at 3 uM; format: cell-based; settings: COS-7
T2 sequence (whole entry): T1 sequence (P15207 whole entry)

| inhibition [%] | SMILES |
| --- | --- |
| 33 | Cn1c2c(c3cc(O)ccc31)CCc1nccnc1-2 |
| 42 | Cn1c2c(c3cc(O)ccc31)CCC1=CC(=O)CCC12C (configuration not stated) |
| 29 | Cn1c2c(c3ccc(O)cc31)CCc1ncccc1-2 |

target: T2, Androgen receptor (Rattus norvegicus); experiment: Inhibition of rat AR-mediated reporter gene expression in COS7 cells at 10 uM; format: cell-based; settings: COS-7

| inhibition [%] | SMILES |
| --- | --- |
| 48 | Cn1c2c(c3cc(F)ccc31)CSc1cc(F)ccc1-2 |

target: T2, Androgen receptor (Rattus norvegicus); experiment: Inhibition of rat AR-mediated reporter gene expression in COS7 cells; settings: COS-7

| Activity | SMILES |
| --- | --- |
| inactive | Cn1c2c(c3cc(O)ccc31)CS(=O)(=O)c1ccccc1-2 |
| inactive | Oc1ccc2nc3c(c(O)c2c1)CCc1ccccc1-3 |
| inactive | Cn1c2c(c3cc(Br)ccc31)CSc1ccccc1-2 |
| inactive | Cn1c2c(c3ccc(O)cc31)SCc1ccccc1-2 |
| inactive | Cn1c2c(c3ccccc31)CSc1ccccc1-2 |
| inactive | Cn1c2c(c3cc(O)ccc31)C[S+]([O-])c1ccccc1-2 (configuration not stated) |
| inactive | Cn1c2c(c3ccc(O)cc31)CCC1=CC(=O)CCC12C (configuration not stated) |
| inactive | CN1Cc2c(n(C)c3cc(O)ccc23)-c2ccccc21 |
| inactive | CN(C)CCn1c2c(c3cc(O)ccc31)CSc1ccccc1-2 |
| inactive | Cn1c2c(c3cc(C#N)ccc31)CSc1ccccc1-2 |
| inactive | CN1c2ccc(O)cc2C(=O)C2CCc3ccccc3C21 (configuration not stated) |
| inactive | CN1C(=O)CCC2(C)c3c(c4cc(O)ccc4n3C)CCC12 (configuration not stated) |
| inactive | Cc1ccc2c(c1)c1c(n2C)-c2ccccc2SC1 |
| inactive | COc1ccc2c(c1)c1c(n2C)-c2ccccc2SC1 |
